Results published in PMC12750277, “Combining Experimental Assays and Molecular Modeling to Evaluate Monosubstituted Cinnamic Acid Derivatives as PDE4B Inhibitors” (ACS Omega, 2025).
Where “and” joins values, the source holds several entries; their conditions need not be identical. Equal values may be shown once. Read-outs that look alike come from different tables or passages of the source.

Columns and labels:
[1] = target: PDE4B (Homo sapiens, UniProt Q07343); assay: Human PDE4 enzyme inhibition assay ([3H]-cAMP), PDE4B; type: biochemical
Protocol: (§1) A standard procedure for PDE testing was carried out according to the previously mentioned protocol. , The enzyme was prepared from U937 cells which were derived from human monocytes, and was stored at −20 °C after preparation. Measurement of PDE4 activity was performed using this stored enzyme after it was diluted with distilled water containing bovine serum albumin. The substrate solution was prepared by adding [3H]-cAMP (300,000 dpm (5000 Bq)/ assay) and […] solution to 100 mmol/L Tris-HCl (pH 8.0) containing 5 mmol/L ethylene glycol-bis (β-aminoethyl ether) and O,O′-bis(2-aminoethyl)-ethylene glycol-N,N,N′,N′-tetraacetic acid. The substrate solution was mixed with the enzyme solution containing a test compound dissolved in DMSO, and incubation was done for 30 min at 30 °C.

[2] = system: TNF-α release in human blood mononuclear cells; assay: LPS-stimulated TNF-α release in PBMCs (TR-FRET); type: cell-based; settings: PBMC, LPS stimulation 18 h, read-out: TNFα IC50
Protocol: The blood was mixed with saline at a ratio of 1:1, and the peripheral blood mononuclear cells (PBMCs) were isolated from buffy coats using Lymphoprep tubes. The PBMCs were suspended in RPMI 1640 with 0.5% human serum albumin, pen/strep, and 2 mM L-glutamine at 5 × 10^5 cells/mL. The cells were preincubated with the test compounds in 96-well plates for 30 min and stimulated for 18 h with […] lipopolysaccharide. TNF-α concentration in the supernatants was measured by homogeneous time-resolved fluorescence resonance (TR-FRET). The assay was quantified by measuring fluorescence at 665 nm (proportional to TNF-α concentration) and 620 nm (control). Results are expressed as IC50 values (μM).
The inhibitory effect of the 19 compounds on the release of HM-TNF-α correlated well with their potency in inhibiting PDE4. […] The well-established correlation between PDE4 inhibition and TNF-α suppression is mechanistically explained by the following pathway: By inhibiting PDE4, these compounds elevate intracellular cAMP levels, which in turn activates protein kinase A (PKA). PKA phosphorylates and inhibits key transcription factors like NF-κB, leading to the downregulation of pro-inflammatory cytokines such as TNF-α. This mechanism provides a solid foundation for understanding the anti-inflammatory effects observed in our study.

[3] = target: PDE4D (Homo sapiens, UniProt Q08499); assay: Human PDE4 enzyme inhibition assay ([3H]-cAMP), PDE4D; type: biochemical
Protocol: as §1

[4] = system: LPS induced TNF-α; assay: LPS induced sepsis for measurement of TNF-α inhibition in mice; type: in vivo; settings: Swiss Albino mice (n = 6), 10 mg/kg po, serum 90 min after LPS
Protocol: The sepsis model in mice was induced using lipopolysaccharide (LPS) according to the methods described in the literature. Female Swiss albino mice were selected according to the body weights, which were equivalent within each group. The mice were fasted for 20 h with free access to water and dosed for oral administration (po) with the test compounds suspended in vehicle containing 0.5% Tween 80 in 0.25% sodium salt of carboxymethylcellulose. The control mice received the vehicle alone. After 30 min of oral dosing, the mice were injected intraperitoneally with 500 μg of lipopolysaccharide (Escherichia coli, LPS: B4 from Sigma) in phosphate buffer. Then the mice were bled via retro-orbital sinus puncture after 90 min of LPS administration. Serum samples were collected by centrifuging the blood samples at 4000 rpm for 20 min, which were stored overnight at 4 °C. The serum samples were then immediately checked for TNF-α levels using commercial mouse TNF-α ELISA kit (Amersham Biosciences) and assay was carried out following the manufacturer’s instruction.
In vivo experiments were conducted using an LPS-induced sepsis model to measure TNF-α inhibition in female Swiss Albino mice and to assess neutrophilia inhibition for asthma and COPD in male Sprague–Dawley rats. Details such as the oral dosages and the number of animals used, along with the percentage inhibition of neutrophilia calculated from the DLC, are provided in Table . […] These findings are particularly relevant in the context of COPD pathophysiology, where both TNF-α-driven inflammation and neutrophilic influx are well-established key drivers of tissue damage and disease progression.

[5] = system: LPS induced neutrophilia (neutrophil influx in BALF); assay: LPS induced neutrophilia model for asthma and COPD; type: in vivo; settings: Sprague–Dawley rats (n = 6), 10 mg/kg po, BAL 6 h after LPS
Protocol: Neutrophilia was induced in Sprague–Dawley rats by lipopolysaccharide (LPS) following the established protocol. Male Sprague–Dawley rats were acclimatized to laboratory conditions for 1 week prior to the experiment. According to the body weight, the rats were distributed to various groups randomly. Except for the normal group, all the rats were exposed to 100 μg/mL lipopolysaccharide (E. coli, LPS: B4 from Sigma) for 40 min. The rats were dosed with the test compound suspended in the vehicle containing 0.25% carboxymethyl cellulose before half an hour of LPS exposure. Bronchoalveolar lavage (BAL) was performed 6 h after LPS exposure, total cell count and differential leukocyte count (DLC) were performed and compared with control and the standard drug.
In vivo experiments were conducted using an LPS-induced sepsis model to measure TNF-α inhibition in female Swiss Albino mice and to assess neutrophilia inhibition for asthma and COPD in male Sprague–Dawley rats.

[6] = system: tumor necrosis factor-α (TNF-α) in bronchoalveolar lavage fluid; settings: oral administration, experimental COPD mice; cited from earlier work
[7] = PDE4B IC50, enzyme prepared from U937 cells, average of at least three assays
[8] = PDE4B pIC50 (Experimental), log(1/IC50), IC50 in μM
[9] = enzyme prepared from U937 cells, average of at least three assays, read-out: PDE4D IC50
[10] = enzyme prepared from U937 cells, average of at least three assays, read-out: PDE4B IC50
[11] = log(1/IC50), IC50 in μM, read-out: PDE4B pIC50 (Experimental) (converted)
[12] = PDE4B, as listed in Table S4 (rounded), read-out: IC50

Sequence of PDE4D (Q08499 386-715 limits assumed): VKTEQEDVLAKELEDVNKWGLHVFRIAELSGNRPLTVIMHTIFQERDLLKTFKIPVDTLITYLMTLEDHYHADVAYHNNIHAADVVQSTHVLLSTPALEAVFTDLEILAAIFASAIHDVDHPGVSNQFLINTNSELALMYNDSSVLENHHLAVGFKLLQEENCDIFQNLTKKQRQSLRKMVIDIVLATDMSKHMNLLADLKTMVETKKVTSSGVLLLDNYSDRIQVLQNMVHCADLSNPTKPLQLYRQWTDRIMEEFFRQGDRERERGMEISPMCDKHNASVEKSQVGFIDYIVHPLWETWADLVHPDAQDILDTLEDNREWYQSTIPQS
Sequence of PDE4B (Q07343 249-736 limits assumed): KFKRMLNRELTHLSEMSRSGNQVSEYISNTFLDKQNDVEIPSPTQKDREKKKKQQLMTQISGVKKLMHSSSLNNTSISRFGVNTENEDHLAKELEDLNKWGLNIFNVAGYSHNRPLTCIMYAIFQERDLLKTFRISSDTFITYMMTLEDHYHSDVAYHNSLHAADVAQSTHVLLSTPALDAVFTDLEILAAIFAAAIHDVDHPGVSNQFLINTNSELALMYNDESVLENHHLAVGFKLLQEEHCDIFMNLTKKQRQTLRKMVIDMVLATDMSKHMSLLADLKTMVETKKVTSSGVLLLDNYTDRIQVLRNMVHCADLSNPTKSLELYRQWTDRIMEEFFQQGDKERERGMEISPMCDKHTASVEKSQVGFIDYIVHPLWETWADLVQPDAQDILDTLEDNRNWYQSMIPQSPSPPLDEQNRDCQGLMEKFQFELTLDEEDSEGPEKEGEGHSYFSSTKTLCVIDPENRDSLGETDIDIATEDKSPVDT

Row | Compound | IC50 [2] | IC50 [3, 9] | IC50 [1, 10] | IC50 [1, 11] | IC50 [1, 12] | further results
1 | O=C(O)/C=C/c1ccccc1 [Compound 1, trans-cinnamic acid] | 198 ± 8.2 µM |  |  |  |  | IC50 [1, 7]: 90.3 ± 3.8 µM; IC50 [1, 8]: 91.2 µM
2 | O=C(O)/C=C/c1ccc(O)cc1 [Compound 4, p-coumaric acid] | 21.5 ± 1.3 µM |  |  |  |  | IC50 [3]: 2.3 ± 0.7 µM; TNF-α inhibition (%) [4]: 41.1% and 41.1 ± 0.65%; LPS induced neutrophilia (% inhibition) [5]: 32.5% and 32.5 ± 0.33%; IC50 [1, 7]: 2.2 ± 0.8 µM; IC50 [1, 8]: 2.19 µM
3 | O=C(O)/C=C/c1ccc(Cl)cc1 [Compound 13, trans-4-chlorocinnamic acid] | 89.7 ± 3.2 µM | 57.3 ± 2.4 µM | 44.5 ± 2.2 µM | 43.7 µM | 44 µM | 
4 | O=C(O)/C=C/c1ccc([N+](=O)[O-])cc1 [Compound 14, trans-4-nitrocinnamic acid] | 96.5 ± 3 µM |  | 112 ± 6.4 µM | 112 µM | 111 µM | 
5 | O=Cc1ccc(/C=C/C(=O)O)cc1 [Compound 15, trans-4-formylcinnamic acid] | 98.5 ± 2.8 µM |  | 101 ± 5.4 µM | 100 µM | 101 µM | 
6 | O=C(O)/C=C/c1ccc(F)cc1 [Compound 16, trans-4-fluorocinnamic acid] | 65.2 ± 3.1 µM | 36.6 ± 2.1 µM | 33.4 ± 1.5 µM | 33.1 µM | 33 µM | 
7 | CN(C)c1ccc(/C=C/C(=O)O)cc1 [Compound 18, trans-4-dimethylaminocinnamic acid] | 65.2 ± 3.1 µM | 19.6 ± 1.1 µM |  | 33.1 µM | 33 µM | 
8 | O=C(O)/C=C/c1ccc(C(F)(F)F)cc1 [Compound 19, trans-4-trifluoromethylcinnamic acid] | 118 ± 5.1 µM |  | 97.2 ± 4.3 µM | 97.7 µM | 97 µM | 
9 | COc1ccc(C2CNC(=O)C2)cc1OC1CCCC1 (stereo not shown) [Rolipram, reference compound] | 18.5 ± 1 µM |  |  |  |  | TNF-α inhibition (%) [4]: 41.7% and 41.7 ± 0.78%; LPS induced neutrophilia (% inhibition) [5]: 32.8% and 32.8 ± 0.40%
10 | O=C(O)C=Cc1cc(O)c(O)c(O)c1 [THCA, 3,4,5-Trihydroxycinnamic acid] |  |  |  |  |  | TNF-α in bronchoalveolar lavage fluid [6]: significantly inhibited

The next lines start with results.

Row | IC50 [2] | IC50 [3, 9] | IC50 [1, 10] | IC50 [1, 11] | IC50 [1, 12] | Compound | further results
11 | 40.4 ± 0.8 µM | 39.6 ± 1.7 µM | 41.4 ± 1.3 µM | 41.7 µM |  | O=C(O)/C=C/c1ccccc1O [Compound 2, ortho-coumaric acid] | 
12 | 37.8 ± 1.9 µM | 32.7 ± 2.1 µM | 28.4 ± 1.4 µM | 28.2 µM |  | O=C(O)/C=C/c1cccc(O)c1 [Compound 3, meta-coumaric acid] | 
13 | 64.2 ± 3.1 µM | 91.4 ± 2.9 µM | 51.1 ± 1.9 µM | 51.3 µM |  | COc1ccccc1/C=C/C(=O)O [Compound 5, trans-2-methoxycinnamic acid] | 
14 | 58.3 ± 2 µM | 65.6 ± 1.8 µM | 32.8 ± 1.1 µM | 33.1 µM |  | COc1cccc(/C=C/C(=O)O)c1 [Compound 6, trans-3-methoxycinnamic acid] | 
15 | 30.8 ± 1.6 µM | 45.6 ± 1.8 µM | 8.2 ± 1.2 µM | 8.13 µM |  | COc1ccc(/C=C/C(=O)O)cc1 [Compound 7, trans-4-methoxycinnamic acid] | TNF-α inhibition (%) [4]: 29.6% and 29.6 ± 0.36%; LPS induced neutrophilia (% inhibition) [5]: 24.2% and 24.2 ± 0.52%; selectivity for PDE4B over PDE4D ([1]; compared with rolipram): higher selectivity ratios for PDE4B over PDE4D than rolipram
16 | 169 ± 5.1 µM |  | 137 ± 5.8 µM | 135 µM | 136 µM | Cc1ccccc1/C=C/C(=O)O [Compound 8, trans-2-methylcinnamic acid] | 
17 | 121 ± 5.7 µM |  | 102 ± 4.1 µM | 102 µM | 102 µM | Cc1cccc(/C=C/C(=O)O)c1 [Compound 9, trans-3-methylcinnamic acid] | 
18 | 99.2 ± 4.1 µM |  | 85.3 ± 3.8 µM | 85.1 µM | 85 µM | Cc1ccc(/C=C/C(=O)O)cc1 [Compound 10, trans-4-methylcinnamic acid] | 
19 | 128 ± 5.8 µM | 89.6 ± 3.7 µM | 82.1 ± 3.9 µM | 81.3 µM | 82 µM | O=C(O)/C=C/c1ccccc1Cl [Compound 11, trans-2-chlorocinnamic acid] | 
20 | 119 ± 4.8 µM | 62.7 ± 2.8 µM | 63.2 ± 3.4 µM | 63.1 µM | 63 µM | O=C(O)/C=C/c1cccc(Cl)c1 [Compound 12, trans-3-chlorocinnamic acid] | 
21 | 125 ± 5.5 µM |  | 87.2 ± 3.5 µM | 87.1 µM | 87 µM | O=C(O)/C=C/c1ccc(Br)cc1 [Compound 17, trans-4-bromocinnamic acid] | 
